According to US9062071B2, “Substituted piperidines as HDM2 inhibitors” (Merck Sharp & Dohme Corp, priority 2011, dated 2015):
pIC50: −log10 of the molar value.

Molecular target: HDM2 protein (Homo sapiens, UniProt Q00987)
Experiment: fluorescence polarization screening assay (FP IC50)
Type: binding
Method: The compounds were evaluated to determine activity at the HDM2 protein by known methods such as the fluorescence polarization screening assay that measures the inhibitory concentration that achieves 50% of maximal activity (FP IC50) and the dissociation constant for inhibitor binding (FP Ki). [Zhang et al., J. Analytical Biochemistry 331: 138-146 (2004)].

HDM2 protein, sequence (Q00987 whole entry): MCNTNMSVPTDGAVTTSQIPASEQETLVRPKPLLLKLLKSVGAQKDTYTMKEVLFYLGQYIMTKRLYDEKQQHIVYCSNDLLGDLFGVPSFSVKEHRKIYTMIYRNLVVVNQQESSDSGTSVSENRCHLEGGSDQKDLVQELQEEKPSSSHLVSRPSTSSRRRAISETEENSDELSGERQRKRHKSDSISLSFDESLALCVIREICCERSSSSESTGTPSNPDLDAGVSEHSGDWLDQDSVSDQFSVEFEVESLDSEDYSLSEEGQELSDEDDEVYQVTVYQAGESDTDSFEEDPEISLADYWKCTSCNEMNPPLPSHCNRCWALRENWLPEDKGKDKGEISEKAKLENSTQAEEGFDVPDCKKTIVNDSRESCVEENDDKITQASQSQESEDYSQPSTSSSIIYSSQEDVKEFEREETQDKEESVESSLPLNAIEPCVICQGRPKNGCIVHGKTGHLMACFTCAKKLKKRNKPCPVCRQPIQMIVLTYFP

| Structure (SMILES) | pIC50 (class symbols) | pIC50 (numeric value) |
| --- | --- | --- |
| COCCN(CCOC)CC[C@H]1N(C(=O)c2cnccc2C(F)(F)F)CCC[C@@]1(Oc1csc(C(F)(F)F)c1)C(=O)N1CCc2ccc(Cl)cc2C1 [Compound A1, 2-[(2R,3S)-3-[(7-chloro-3,4-dihydroisoquinblin-2(1H)-yl)carbonyl]-1-{[4-(trifluoromethyl)byridin-3-yl]carbonyl}-3-{[5-(trifluoromethyl)thiophen-3-yl]oxy}piperidin-2-yl]-N,N-bis(2-methoxyethyl)ethanamine] |  | 3.33 |
| O=C(c1cnccc1C(F)(F)F)N1CCC[C@@](Oc2csc(C(F)(F)F)c2)(C(=O)N2CCc3ccc(Cl)cc3C2)[C@H]1CCN1CCOCC1 [Compound A3, 7-chloro-2-{[(2R,3S)-2-(2-morpholin-4-ylethyl)-1-{[4-(trifluoromethyl)pyridin-3-yl]carbonyl}-3-{[5-(trifluoromethyl)thiophen-3-yl]oxy}piperidin-3-yl]carbonyl}-1,2,3,4-tetrahydroisoquinoline] | 4.70 to 7.00 |  |
| CCC[C@H]1N(C(=O)c2ncccc2C(F)(F)F)CCC[C@@]1(Oc1csc(C(F)(F)F)c1)C(=O)N1CCc2ccc(C#N)cc2C1 [Compound A5, 2-{[(2R,3S)-2-propyl-1-{[3-(trifluoromethyl)pyridin-2-yl]carbonyl}-3-{[5-(trifluoromethyl)thiophen-3-yl]oxy}piperidin-3-yl]carbonyl}-1,2,3,4-tetrahydroisoquinoline-7-carbonitrile] | 4.70 to 7.00 |  |
| CCC[C@H]1N(C(=O)c2ncccc2C(F)(F)F)CCC[C@@]1(Oc1csc(C(F)(F)F)c1)C(=O)N1CCc2ccc(C(N)=O)cc2C1 [Compound A6, 2-{[(2R,3S)-2-propyl-1-{[3-(trifluoromethyl)pyridin-2-yl]carbonyl}-3-{[5-(trifluoromethyl)thiophen-3-yl]oxy}piperidin-3-yl]carbonyl}-1,2,3,4-tetrahydroisoquinoline-7-carboxamide] | 4.70 to 7.00 |  |
| CCC[C@H]1N(C(=O)c2ncccc2C(F)(F)F)CCC[C@@]1(Oc1csc(C(F)(F)F)c1)C(=O)N1CCc2sccc2C1 [Compound A8, 5-{[(2R,3S)-2-propyl-1-{[3-(trifluoromethyl)pyridin-2-yl]carbonyl}-3-{[5-(trifluoromethyl)thiophen-3-yl]oxy}piperidin-3-yl]carbonyl}-4,5,6,7-tetrahydrothieno[3,2-c]pyridine] | 4.70 to 7.00 |  |
| CCC[C@H]1N(C(=O)c2ncccc2C(F)(F)F)CCC[C@@]1(Oc1csc(C(F)(F)F)c1)C(=O)N1CCc2sc(C(=O)OCC)cc2C1 [Compound A9, ethyl 5-{[(2R,3S)-2-propyl-1-{[3-(trifluoromethyl)pyridin-2-yl]carbonyl}-3-{[5-(trifluoromethyl)thiophen-3-yl]oxy}piperidin-3-yl]carbonyl}-4,5,6,7-tetrahydrothieno[3,2-c]pyridine-2-carboxylate] | 4.70 to 7.00 |  |
| CCC[C@H]1N(C(=O)c2ncccc2C(F)(F)F)CCC[C@@]1(Oc1csc(C(F)(F)F)c1)C(=O)N1CCc2sc(C(=O)O)cc2C1 [Compound A10, 5-{[(2R,3S)-2-propyl-1-{[3-(trifluoromethyl)pyridin-2-yl]carbonyl}-3-{[5-(trifluoromethyl)thiophen-3-yl]oxy}piperidin-3-yl]carbonyl}-4,5,6,7-tetrahydrothieno[3,2-c]pyridine-2-carboxylic acid] | 4.70 to 7.00 |  |
| CCC[C@H]1N(C(=O)c2ncccc2C(F)(F)F)CCC[C@@]1(Oc1csc(C(F)(F)F)c1)C(=O)N1CCc2cc(N)ccc2C1 [Compound A11, 2-{[(2R,3S)-2-propyl-1-{[3-(trifluoromethyl)pyridin-2-yl]carbonyl}-3-{[5-(trifluoromethyl)thiophen-3-yl]oxy}piperidin-3-yl]carbonyl}-1,2,3,4-tetrahydroisoquinolin-6-amine] | 4.70 to 7.00 |  |

Now from value to compound:

| pIC50 (class symbols) | pIC50 (numeric value) | Structure (SMILES) |
| --- | --- | --- |
| 7.00 to 9.00 |  | CCC[C@H]1N(C(=O)c2ncccc2C(F)(F)F)CCC[C@@]1(Oc1csc(C(F)(F)F)c1)C(=O)N1CCc2cc(Cl)ccc2C1CC(C)(C)C(=O)NS(C)(=O)=O (single isomer, unassigned) [Compound A68] |
| 7.00 to 9.00 |  | CCC[C@H]1N(C(=O)c2ncccc2C(F)(F)F)CCC[C@@]1(Oc1csc(C(F)(F)F)c1)C(=O)N1CCc2cc(Cl)ccc2C1CC(C)(C)C(=O)NS(C)(=O)=O (single isomer, unassigned) [Compound A69] |
| 7.00 to 9.00 |  | CCC[C@H]1N(C(=O)c2ncccc2C(F)(F)F)CCC[C@@]1(Oc1csc(C(F)(F)F)c1)C(=O)N1Cc2cc(F)ccc2CC1C(=O)O (stereo in doubt) [Compound A126, (3S)-7-fluoro-2-{[(2R,3S)-2-propyl-1-{[3-(trifluoromethyl)pyridin-2-yl]carbonyl}-3-{[5-(trifluoromethyl)thiophen-3-yl]oxy}piperidin-3-yl]carbonyl}-1,2,3,4-tetrahydroisoquinoline-3-carboxylic acid] |
| 7.00 to 9.00 |  | COCCN(CCOC)CC[C@H]1N(C(=O)c2cnccc2C(F)(F)F)CCC[C@@]1(Oc1csc(C(F)(F)F)c1)C(=O)N1CCc2cc(Cl)ccc2C1 [Compound A2, 2-[(2R,3S)-3-[(6-chloro-3,4-dihydroisoquinblin-2(1H)-yl)carbonyl]-1-{[4-(trifluoromethyl)byridin-3-yl]carbonyl}-3-{[5-(trifluoromethyl)thiophen-3-yl]oxy}piperidin-2-yl]-N,N-bis(2-methoxyethyl)ethanamine] |
| 7.00 to 9.00 |  | O=C(c1cnccc1C(F)(F)F)N1CCC[C@@](Oc2csc(C(F)(F)F)c2)(C(=O)N2CCc3cc(Cl)ccc3C2)[C@H]1CCN1CCOCC1 [Compound A4, 6-chloro-2-{[(2R,3S)-2-(2-morpholin-4-ylethyl)-1-{[4-(trifluoromethyl)pyridin-3-yl]carbonyl}-3-{[5-(trifluoromethyl)thiophen-3-yl]oxy}piperidin-3-yl]carbonyl}-1,2,3,4-tetrahydroisoquinoline] |
| 7.00 to 9.00 |  | O=C(c1ncccc1C(F)(F)F)N1CCC[C@@](Oc2csc(C(F)(F)F)c2)(C(=O)N2CCc3cc(F)ccc3C2)[C@H]1CCN1CCOCC1 [Compound A7, 6-fluoro-2-{[(2R,3S)-2-(2-morpholin-4-ylethyl)-1-{[3-(trifluoromethyl)pyridin-2-yl]carbonyl}-3-{[5-(trifluoromethyl)thiophen-3-yl]oxy}piperidin-3-yl]carbonyl}-1,2,3,4-tetrahydroisoquinoline] |
| 7.00 to 9.00 |  | CCC[C@H]1N(C(=O)c2ncccc2C(F)(F)F)CCC[C@@]1(Oc1csc(C(F)(F)F)c1)C(=O)N1CCc2cc(Cl)ccc2C1CN1CCOCC1 (stereo partly drawn) [Compound A12, 6-chloro-1-(morpholin-4-ylmethyl)-2-{[(2R,3S)-2-propyl-1-{[3-(trifluoromethyl)pyridin-2-yl]carbonyl}-3-{[5-(trifluoromethyl)thiophen-3-yl]oxy}piperidin-3-yl]carbonyl}-1,2,3,4-tetrahydroisoquinoline] |
| 7.00 to 9.00 |  | CCC[C@H]1N(C(=O)c2ncccc2C(F)(F)F)CCC[C@@]1(Oc1csc(C(F)(F)F)c1)C(=O)N1CCc2sc(Cl)cc2C1C(=O)O (stereo partly drawn) [Compound A13, 2-chloro-5-{[(2R,3S)-2-propyl-1-{[3-(trifluoromethyl)pyridin-2-yl]carbonyl}-3-{[5-(trifluoromethyl)thiophen-3-yl]oxy}piperidin-3-yl]carbonyl}-4,5,6,7-tetrahydrothieno[3,2-c]pyridine-4-carboxylic acid] |
